The nature of series [1]: in vitro. The note with it: rat, lung S9 fraction.
Description: Stability in rat lung S9 fraction assessed as half-life at 1 uM incubated for 60 mins by LC-MS/MS analysis
For series [2], the system named is Cavia porcellus. Kind of series: Inhibition of acetylcholine induced bronchoconstriction in male albino Dunkin-Hartley guinea pig model at 3 nmol/kg, IT(Intratracheal) preadministered with compound followed by acetylcholine addition at 5 to 30 mins and measured 16 hrs post compound treatment relative to control. The conditions noted are these: read-out: INH.
Series [3] is described as follows: in vitro. The conditions noted are these: guinea pig, lung S9 fraction.
Description: Stability in guinea pig lung S9 fraction assessed as half-life at 1 uM incubated for 60 mins by LC-MS/MS analysis
Series [4] addresses Beta-2 adrenergic receptor (Cavia porcellus, UniProt Q8K4Z4). Briefly: Agonist activity at beta2 adrenoceptor in male albino Dunkin-Hartley guinea pig trachea assessed as inhibition of histamine induced smooth muscle contraction.
For series [5], the target named is Beta-2 adrenergic receptor (Homo sapiens, UniProt P07550).
Description: Displacement of [125I]-Cyanopindolol from human beta2 adrenoceptor assessed as inhibition constant incubated for 1 hrs by Microbeta scintillation counter
Series [6] has as its target Muscarinic acetylcholine receptor M3 (Cavia porcellus, UniProt Q8VH26). Briefly: Antagonist activity at M3 receptor in male albino Dunkin-Hartley guinea pig trachea assessed as inhibition of carbachol-induced smooth muscle contraction in presence of propranolol.
The test system of series [7] is Cavia porcellus. Briefly: Inhibition of histamine induced bronchoconstriction in male albino Dunkin-Hartley guinea pig model at 3 nmol/kg, IT(Intratracheal) preadministered with compound followed by histamine addition at 5 to 30 mins and measured 16 hrs post compound treatment relative to control. The conditions noted are these: read-out: INH.
Series [8] in a line: in vitro. The conditions noted are these: guinea pig, hepatocytes.
Description: Metabolic stability in guinea pig hepatocytes assessed as clearance measured per 10^6 cells at 1 uM incubated for 90 mins by LC-MS/MS analysis
Series [9] is described as follows: in vitro. The note with it: human, lung S9 fraction.
Description: Stability in human lung S9 fraction assessed as half-life at 1 uM incubated for 60 mins by LC-MS/MS analysis
Series [10] deals with Cavia porcellus. Kind of series: Inhibition of histamine induced bronchoconstriction in male albino Dunkin-Hartley guinea pig model at 3 nmol/kg, IT(Intratracheal) preadministered with compound followed by histamine addition at 5 to 30 mins and measured 1 hrs post compound treatment relative to control. The conditions noted are these: read-out: INH.
Series [11] is described as follows: in vitro. The conditions noted are these: human, hepatocytes.
Description: Metabolic stability in human hepatocytes assessed as clearance measured per 10^6 cells at 1 uM incubated for 90 mins by LC-MS/MS analysis
The nature of series [12]: in vitro. The note with it: rat, hepatocytes.
Description: Metabolic stability in rat hepatocytes assessed as clearance measured per 10^6 cells at 1 uM incubated for 90 mins by LC-MS/MS analysis
The test system of series [13] is Cavia porcellus. Briefly: Inhibition of acetylcholine induced bronchoconstriction in male albino Dunkin-Hartley guinea pig model at 3 nmol/kg, IT(Intratracheal) preadministered with compound followed by acetylcholine addition at 5 to 30 mins and measured 1 hrs post compound treatment relative to control. The conditions noted are these: read-out: INH.
Series [14] is filed under the species Cavia porcellus. Kind of series: animal or person. The conditions noted are these: albino Dunkin-Hartley, 16 h, read-out: INH.
Description: Inhibition of acetylcholine induced bronchoconstriction in male albino Dunkin-Hartley guinea pig model at 3 nmol/kg, IT(Intratracheal) preadministered with compound followed by acetylcholine addition at 5 to 30 mins in presence of ICI-118551 and measured 16 hrs post compound treatment relative to control
The target of series [15] is Muscarinic acetylcholine receptor M3 (Homo sapiens, UniProt P20309).
Description: Displacement of Scopolamine methyl chloride,[N-methyl-3H] from human muscarinic M3 receptor assessed as inhibition constant incubated for 2 hrs by Microbeta scintillation counter
In another series the test system is Trachea. Briefly: Inhibition of carbachol-induced smooth muscle contraction in male albino Dunkin-Hartley guinea pig trachea. The conditions noted are these: Cavia porcellus, read-out: pIC50 (converted).
Series [16] in a line: Protein binding in guinea pig plasma at 5 uM incubated for 4 hrs by LC-MS/MS analysis.
Series [17] can be described thus: in vitro. The conditions noted are these: rat, plasma.
Description: Stability in rat plasma assessed as half-life at 5 uM incubated for 120 mins by LC-MS/MS analysis
Series [18] is described as follows: in vitro. The conditions noted are these: human, plasma.
Description: Stability in human plasma assessed as half-life at 5 uM incubated for 120 mins by LC-MS/MS analysis
Series [19] is filed under the species Cavia porcellus. Kind of series: animal or person. The note with it: albino Dunkin-Hartley, 1 h, read-out: INH.
Description: Inhibition of acetylcholine induced bronchoconstriction in male albino Dunkin-Hartley guinea pig model at 3 nmol/kg, IT(Intratracheal) preadministered with compound followed by acetylcholine addition at 5 to 30 mins in presence of ICI-118551 and measured 1 hrs post compound treatment relative to control
The nature of series [20]: in vitro. The note with it: guinea pig, plasma.
Description: Stability in guinea pig plasma assessed as half-life at 5 uM incubated for 120 mins by LC-MS/MS analysis
A short description of series [21]: Stability in guinea pig lung S9 fraction at 1 uM incubated for 60 mins by LC-MS/MS analysis.
Series [22] in a line: Protein binding in human plasma at 5 uM incubated for 4 hrs by LC-MS/MS analysis.
The subject of series [23] is Cavia porcellus. Kind of series: Inhibition of acetylcholine induced bronchoconstriction in male albino Dunkin-Hartley guinea pig model at 3 nmol/kg, IT(Intratracheal) preadministered with compound followed by acetylcholine addition at 5 to 30 mins and measured 24 hrs post compound treatment relative to control. The note with it: read-out: INH.
In series [24] the test system is Cavia porcellus. Kind of series: Inhibition of acetylcholine induced bronchoconstriction in male albino Dunkin-Hartley guinea pig model at 1 nmol/kg, IT(Intratracheal) preadministered with compound followed by acetylcholine addition at 5 to 30 mins and measured 1 hrs post compound treatment relative to control. The note with it: read-out: INH.
Series [25] can be described thus: Protein binding in rat plasma at 5 uM incubated for 4 hrs by LC-MS/MS analysis.

Muscarinic acetylcholine receptor M3 (Homo sapiens, UniProt P20309), sequence (P20309 whole entry): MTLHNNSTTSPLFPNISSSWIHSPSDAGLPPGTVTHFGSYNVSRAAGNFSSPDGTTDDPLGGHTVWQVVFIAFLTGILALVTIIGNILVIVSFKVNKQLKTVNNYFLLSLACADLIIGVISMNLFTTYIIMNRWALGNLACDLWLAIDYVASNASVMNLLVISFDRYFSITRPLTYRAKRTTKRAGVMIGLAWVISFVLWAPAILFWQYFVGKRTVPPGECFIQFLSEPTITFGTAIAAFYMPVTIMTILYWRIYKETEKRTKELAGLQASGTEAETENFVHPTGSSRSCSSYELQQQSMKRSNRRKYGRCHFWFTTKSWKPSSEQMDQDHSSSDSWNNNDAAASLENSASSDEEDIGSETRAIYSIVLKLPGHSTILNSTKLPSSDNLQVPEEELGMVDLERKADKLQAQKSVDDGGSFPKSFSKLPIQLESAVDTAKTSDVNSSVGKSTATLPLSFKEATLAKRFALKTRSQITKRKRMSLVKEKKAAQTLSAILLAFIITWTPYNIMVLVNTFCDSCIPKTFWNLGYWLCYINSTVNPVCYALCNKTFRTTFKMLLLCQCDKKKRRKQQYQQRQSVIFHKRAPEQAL
Muscarinic acetylcholine receptor M3 (Cavia porcellus, UniProt Q8VH26), sequence (Q8VH26 whole entry): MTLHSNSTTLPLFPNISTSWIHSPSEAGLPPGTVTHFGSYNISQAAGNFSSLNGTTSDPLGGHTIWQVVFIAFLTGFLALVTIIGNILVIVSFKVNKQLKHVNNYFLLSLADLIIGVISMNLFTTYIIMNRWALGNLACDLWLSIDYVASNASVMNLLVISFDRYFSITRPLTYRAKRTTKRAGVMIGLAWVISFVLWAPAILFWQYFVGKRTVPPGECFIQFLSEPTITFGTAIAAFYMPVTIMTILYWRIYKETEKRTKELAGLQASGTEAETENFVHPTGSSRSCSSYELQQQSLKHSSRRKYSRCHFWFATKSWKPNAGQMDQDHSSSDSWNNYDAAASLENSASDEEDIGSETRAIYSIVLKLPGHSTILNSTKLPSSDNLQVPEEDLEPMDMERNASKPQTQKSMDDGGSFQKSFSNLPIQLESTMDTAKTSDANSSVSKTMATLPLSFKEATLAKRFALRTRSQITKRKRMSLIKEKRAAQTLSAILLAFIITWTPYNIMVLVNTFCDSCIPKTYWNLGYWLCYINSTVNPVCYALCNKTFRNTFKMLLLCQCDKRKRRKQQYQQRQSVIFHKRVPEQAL
Beta-2 adrenergic receptor (Cavia porcellus, UniProt Q8K4Z4), sequence (Q8K4Z4 whole entry): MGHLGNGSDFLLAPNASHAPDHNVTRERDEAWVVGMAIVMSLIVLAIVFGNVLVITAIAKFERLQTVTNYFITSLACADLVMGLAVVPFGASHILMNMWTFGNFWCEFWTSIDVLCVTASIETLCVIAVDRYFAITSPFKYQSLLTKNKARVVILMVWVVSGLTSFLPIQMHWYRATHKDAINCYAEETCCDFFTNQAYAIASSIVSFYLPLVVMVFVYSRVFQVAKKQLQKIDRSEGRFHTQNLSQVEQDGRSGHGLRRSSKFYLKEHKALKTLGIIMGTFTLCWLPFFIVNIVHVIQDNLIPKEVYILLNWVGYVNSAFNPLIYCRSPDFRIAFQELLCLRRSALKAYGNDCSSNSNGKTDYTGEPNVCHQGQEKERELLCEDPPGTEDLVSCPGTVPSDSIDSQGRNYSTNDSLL
Beta-2 adrenergic receptor (Homo sapiens, UniProt P07550), sequence (P07550 whole entry): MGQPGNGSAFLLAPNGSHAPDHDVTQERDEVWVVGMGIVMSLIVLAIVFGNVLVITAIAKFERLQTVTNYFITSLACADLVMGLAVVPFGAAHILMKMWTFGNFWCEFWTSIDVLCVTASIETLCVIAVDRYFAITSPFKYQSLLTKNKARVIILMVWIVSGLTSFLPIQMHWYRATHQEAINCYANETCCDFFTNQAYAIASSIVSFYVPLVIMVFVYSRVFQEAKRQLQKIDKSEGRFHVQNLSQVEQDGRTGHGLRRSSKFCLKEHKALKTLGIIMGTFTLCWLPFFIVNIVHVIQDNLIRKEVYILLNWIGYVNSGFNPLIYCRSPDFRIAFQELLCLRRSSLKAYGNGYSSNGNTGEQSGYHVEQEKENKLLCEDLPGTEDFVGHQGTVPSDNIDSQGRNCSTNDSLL

In the case of `O=C(NCCCOc1cccc([C@@](O)(C(=O)OCC2CCN(Cc3ccccc3)CC2)c2ccccc2)c1)c1ccc(CNCC(O)c2ccc(O)c3[nH]c(=O)ccc23)cc1` (stereo partly drawn), the half-life at 1 h, 1 µM stood at 4.52 h in the series “in vitro [1]”, 4.67 h in “in vitro [3]” and 2.3 h in the series “in vitro [9]”. Besides, the inhibition in vivo at 0.003 µmol/kg in the series with Cavia porcellus [2] came to 56%; in the series on Cavia porcellus [7], 39%; in the series with Cavia porcellus [10], 86%; with Cavia porcellus [13], 93%; in the series listed under Cavia porcellus [14], 39%; in the series filed under Cavia porcellus [19], 70%. The IC50 in [4] was 0.0501 nM; in [6], 10 nM; with Trachea, 0.251 nM. The results for the Ki in series [5] and in series [15] were 0.0501 nM and 10 nM, respectively. In addition, the hepatocyte CLint at 1.5 h, 1 µM in the series “in vitro [8]” was found to be 41 µL/min/1e6 cells; in “in vitro [11]”, 18 µL/min/1e6 cells; in “in vitro [12]”, 33 µL/min/1e6 cells. Besides, the fraction unbound at 4 h, 5 µM in series [16] and in [22] was 0.01 in each case. Also, the half-life at 2 h, 5 µM in “in vitro [17]” is 0.183 h; in “in vitro [18]” it was more than 2.5 h; in the series “in vitro [20]”, more than 2.5 h. Also, in [21], the amount remaining at 1 h, 1 µM was found to be 91.9%.

In the case of `O=C(c1ccc(OCc2ccc(CNC[C@H](O)c3ccc(O)c4[nH]c(=O)ccc34)cc2)cc1)N1CCC(C(=O)OC2CN3CCC2CC3)(c2ccccc2)CC1` (single isomer, unassigned), the half-life at 1 h, 1 µM in “in vitro [1]” came to 3.62 h; in the series “in vitro [3]”, 3.6 h; in the series “in vitro [9]”, 4.67 h. Also, the inhibition in vivo at 0.003 µmol/kg in the series on Cavia porcellus [23] is 68%; in the series on Cavia porcellus [10] it was 21%; with Cavia porcellus [13], 93%; in the series filed under Cavia porcellus [19], 90%. Moreover, the values for the IC50 (in [4]; in series [6]; in the series with Trachea) were 0.501 nM, 2.51 nM and 1 nM, respectively. The figures for the Ki in series [5] and in [15] were 0.2 nM and 0.251 nM, respectively. Moreover, the hepatocyte CLint at 1.5 h, 1 µM in “in vitro [11]” is 15 µL/min/1e6 cells; in the series “in vitro [12]” it was 27 µL/min/1e6 cells. Besides, the half-life at 2 h, 5 µM was more than 2.5 h in “in vitro [17]”, more than 2.5 h in the series “in vitro [18]” and 1.82 h in the series “in vitro [20]”. Also, the inhibition in vivo at 0.001 µmol/kg in the series on Cavia porcellus [24] turned out to be 60%. The fraction unbound at 4 h, 5 µM was 0.15 in [25] and 0.02 in series [22].

One may read the half-life as the time needed for the level to fall by half in the phase considered. Low readings indicate rapid decline, high ones slow decline. One may read the Ki as the dissociation constant of the complex between target and ligand, obtained from inhibition or displacement. High values mean lower affinity, low ones higher affinity. For orientation: hepatocyte CLint means the capacity of the preparation to metabolise the compound, expressed as a volume cleared per time. Low readings indicate greater metabolic stability, high ones faster metabolism. A word on the fraction unbound: it is the share of the substance not bound to proteins or other matrix. A high value points to much free substance. In general, share remaining refers to the share of the starting amount still present when the sample was taken. A low value points to a greater loss.

The values are drawn from ChEMBL document CHEMBL5500396, “Discovery, Multiparametric Optimization, and Solid-State Driven Identification of CHF-6550, a Novel Soft Dual Pharmacology Muscarinic Antagonist and β2 Agonist (MABA) for the Inhaled Treatment of Respiratory Diseases” (J Med Chem, 2024).
